Experimental data published in PubChem BioAssay AID1996.
Values after ≈ are worked out from the molar mass of the structure shown.

Conditions: buffer; pH 7.4; 200.0 µM

Row | Compound | solubility kinetic [µg/mL]
1 | COc1cc(NC(=O)c2ccccc2)ccc1NC(=O)Cc1ccccc1 | < 0.4
2 | COc1cc(OC)c(C(=O)OCC(=O)Nc2ccc(N3CCOCC3)cc2)cc1OC | 6.5 (≈ 15.1 µM)
3 | CC(=O)Cn1c(=O)oc2ccccc21 | 27.1 (≈ 142 µM)
4 | O=C(Cc1ccc(Cl)cc1)NC1CCCCCC1 | 10.2 (≈ 38.4 µM)
5 | COC(=O)Nc1nn(-c2ccc(OC)cc2)c(=O)c(C#N)c1C | > 47.1
6 | Cc1ccc(NC(=O)C2Cc3ccccc3C(=O)O2)cc1 (stereo unspecified) | 4.7 (≈ 16.7 µM)
7 | Cc1[nH]c2ccccc2c1C(=O)C(C)OC(=O)c1ccc(Cl)nc1 (stereo unspecified) | 26.6 (≈ 77.6 µM)
8 | Cc1ccc(-c2c[nH]c(=S)n2-c2ccccc2)cc1 | 6 (≈ 22.5 µM)
9 | O=C(NC1CCC(O)CC1)c1ccc(-c2ccc(Cl)cc2)o1 (stereo unspecified) | 18.7 (≈ 58.5 µM)
10 | COc1ccc(Cl)cc1C(=O)Nc1ccncc1 | > 39.4
11 | CN1CCN(c2ccc(NC(=O)c3ccco3)cc2Cl)CC1 | 45.3 (≈ 142 µM)
12 | O=c1[nH]c(=O)n(-c2ccc(F)cc2)c(O)c1/C=C1\C=Nc2ccccc21 | 1.9 (≈ 5.44 µM)
13 | CCc1cccc2c1NC(=O)C21OCCO1 | 27.5 (≈ 125 µM)
14 | O=C1NC(=O)N(c2ccccc2)C(=O)/C1=C\c1ccccc1[N+](=O)[O-] | > 50.6
15 | O=C(Cc1ccccc1)N1CCN=C1SCc1cccc([N+](=O)[O-])c1 | 9.7 (≈ 27.3 µM)
16 | O=C(Cc1ccccc1)Nc1ccc(NC(=O)c2ccccc2)nc1 | 5.2 (≈ 15.7 µM)
17 | O=C(c1ccccc1)c1nccn1-c1ccc(Cl)nn1 | > 42.7
18 | Fc1ccc(Oc2ccnc(Cl)n2)c(Cl)c1 | 16.9 (≈ 65.2 µM)
19 | COc1ccc(/C=N/NC(=O)c2ccccc2O)cc1CN1CCOCC1 | > 55.4
20 | Cc1cccc(OCCCN2CCOCC2)c1 | 28 (≈ 119 µM)
21 | COc1ccc(C2c3ccsc3CCN2C(C)=O)cc1 (stereo unspecified) | 32.2 (≈ 112 µM)
22 | O=C(C1CCCCCC1)N1CC[C@@H](N2CCC(O)CC2)[C@H](O)C1 | > 48.7
23 | Cc1cc(C)c2c(N)c(C(=O)c3ccccc3Cl)sc2n1 | 0.4 (≈ 1.26 µM)
24 | O=C(Nc1sc2c(c1C(=O)O)CCC2)c1cccc(Cl)c1 | > 48.3
25 | O=S(=O)(Nc1ccc(Br)cc1)c1cccc2nonc12 | > 53.1

Row | Compound | solubility kinetic [µg/mL]
26 | Br.CCn1c2c(c(=N)c3c1CCC3)CCCC2 | > 44.6
27 | Cc1cc(C)nc(SCC(=O)NC(=O)c2ccccc2O)n1 | > 47.6
28 | COc1ccc(C(=O)CCC(=O)NCCc2ccccc2F)cc1 | 16.9 (≈ 51.3 µM)
29 | CCN(c1ccccc1)S(=O)(=O)c1ccc(C(=O)N2CCOCC2)cc1 | > 56.2
30 | COC(=O)c1c(SCC(=O)Nc2ccc(C)cc2)nc(=O)[nH]c1C | 8.4 (≈ 24.2 µM)
31 | O=C(Nc1ccc(N2CCOCC2)cc1)c1cccc(S(=O)(=O)N2CCOCC2)c1 | 15.1 (≈ 35 µM)
32 | O=C(Nc1cccc(C(F)(F)F)c1)c1scc2c1OCCO2 | < 0.7
33 | O=C(Nc1ccsc1C(=O)O)c1ccccc1Cl | > 42.3
34 | Cc1cc(SC2CCOC2=O)nc2ccccc12 (stereo unspecified) | 35.5 (≈ 137 µM)
35 | O=c1cc(C(F)(F)F)[nH]c(=S)n1-c1ccccc1 | > 40.8
36 | O=[N+]([O-])c1ccccc1Nc1ccccc1 | 1.1 (≈ 5.13 µM)
37 | COCC(=O)Nc1nc(-c2ccc(-c3ccccc3)cc2)cs1 | 4.4 (≈ 13.6 µM)
38 | Cc1ccc(CNC(=O)CCSCc2cccc(F)c2)cc1 | 5.2 (≈ 16.4 µM)
39 | COC(=O)c1[nH]c2cc(OC)ccc2c1NC(=O)c1c(F)cccc1F | 4.9 (≈ 13.6 µM)
40 | COc1cc(C(=O)Nc2ccc(C)cc2)c2ccccc2n1 | < 0.3
41 | COC(=O)c1ccc(COC(=O)CNC(=O)c2cccs2)cc1 | > 50
42 | O=C(N/N=C/c1ccc(N2CCOCC2)cc1)c1ccncc1 | > 46.6
43 | O=C1CSC2(N1)C1CC3CC(C1)CC2C3 (stereo unspecified) | 12.5 (≈ 56 µM)
44 | O=C(COC(=O)c1ccc([N+](=O)[O-])o1)NC1CCCC1 | 39.2 (≈ 139 µM)
45 | Cc1ccc(N2C(=NC(=O)c3ccccc3)SC3CS(=O)(=O)CC32)cc1 (stereo unspecified) | < 0.4
46 | COc1ccc(NC2(C#N)CCCCC2)cc1 | 12.4 (≈ 53.8 µM)
47 | CC(=O)Nc1ccc(OCC(=O)NCCc2ccccc2)cc1 | > 46.9
48 | CN1CCC(N(C)S(=O)(=O)c2ccc(F)cc2F)CC1 | > 45.7
49 | COCCn1c(=S)[nH]c2sc3c(c2c1=O)CCCC3 | > 44.5
50 | COC(=O)c1ccc2c(=O)n(-c3ccccc3F)c(=S)[nH]c2c1 | 1 (≈ 3.03 µM)

Row | Compound | solubility kinetic [µg/mL]
51 | O=C1CC(=O)N(c2cccc(Br)c2)C(=O)N1 | 39.2 (≈ 138 µM)
52 | CCN(CC)c1ccc2c(O)cc(=O)oc2c1 | > 35
53 | COc1ccc(S(=O)(=O)NCC2CCCO2)cc1Cl (stereo unspecified) | 34.2 (≈ 112 µM)
54 | CN1CCC2(CC1)C(C#N)=C(N)NC(S)=C2C#N | > 39.2
55 | Cc1noc(NS(=O)(=O)c2ccc(NC(=O)c3cc4ccccc4o3)cc2)c1C | 61.6 (≈ 150 µM)
56 | O=C(NOCc1ccccc1)c1ccc(Cl)cc1 | 11.3 (≈ 43.2 µM)
57 | S=C(c1ccccc1)N1CCSCC1 | > 33.5
58 | CCCSC1C(C)=C(C)C(=O)N1Cc1ccccc1 (stereo unspecified) | 35.5 (≈ 129 µM)
59 | O=C(OCC(=O)N1CCCC1)c1ccc(Cl)nc1 | > 40.3
60 | COc1ccc2c(c1)sc1nc(=O)ccn12 | > 34.8
61 | Cc1cc(NC(=O)c2ccc(COc3ccccc3Cl)o2)no1 | < 0.4
62 | CN(Cc1nc(CCc2ccccc2)no1)Cc1cccs1 | 18.4 (≈ 58.7 µM)
63 | CCCc1cc(=O)[nH]c(SCC(=O)N2CCOCC2)n1 | > 44.6
64 | COc1ccc(C(=O)N=c2sccn2C)cc1 | 36.1 (≈ 145 µM)
65 | NC(=O)C1CCN(c2oc(-c3cccs3)nc2S(=O)(=O)c2ccc(Br)cc2)CC1 | 17.6 (≈ 35.5 µM)
66 | Cc1nc(SCC(=O)NC(=O)NC(C)C)nc(C)c1C | > 44.5
67 | COc1ccc(CNc2ccc([N+](=O)[O-])cc2C)cc1 | 2.1 (≈ 7.71 µM)
68 | CCOCCCNC(=O)/C(C#N)=C/c1ccc([N+](=O)[O-])o1 | 24 (≈ 81.8 µM)
69 | Cc1ccc(-c2ccc(S(=O)(=O)NCC3CCCO3)cc2)cc1 (stereo unspecified) | 1.6 (≈ 4.83 µM)
70 | Nc1nc2c(F)c(F)c(F)cc2s1 | 21.7 (≈ 106 µM)
71 | O=C(COC(=O)c1ccc2c(c1)OCCO2)NCc1ccccc1Cl | 5.2 (≈ 14.4 µM)
72 | C=CCNC(=O)/C(C#N)=C/c1ccc(C(=O)O)cc1 | > 38.4
73 | CC(C)CNC(=O)c1cccc2c1-c1ccccc1C2=O | 2.5 (≈ 8.95 µM)
74 | Cc1ccc(S(=O)(=O)NC2CCCC2)cc1C(N)=O | > 42.4
75 | O=C(OCC(=O)c1ccc[nH]1)c1ccc2ccccc2n1 | 30 (≈ 107 µM)

Row | Compound | solubility kinetic [µg/mL]
76 | Cl.c1cc(CNC2C3CC4CC(C3)CC2C4)ccn1 (stereo unspecified) | 33.7
77 | COC(=O)c1ccc(CN(C)S(=O)(=O)c2cccs2)cc1 | 2.6 (≈ 7.99 µM)
78 | CCC1Cc2c(nc(N)c3c(N)nc(N4CCOCC4)c(C#N)c23)O1 (stereo unspecified) | 8.9 (≈ 26.1 µM)
79 | COc1ccccc1N(Cc1ccccc1)S(=O)(=O)c1cccc(C(=O)N2CCCCC2)c1 | 11.3 (≈ 24.3 µM)
80 | COC(=O)c1ccc(CO/N=C/c2ccc(OC)cc2)o1 | 13.9 (≈ 48 µM)
81 | O=C(NCc1ccncc1)C(=O)Nc1nccs1 | > 39.3
82 | COc1ccc(C(=O)NCC(=O)N2CCNC(=O)C2)cc1OC | > 48.2
83 | CCCC(=O)Nc1cc2c(cc1C(C)=O)OCCO2 | > 39.5
84 | Cn1c(=O)c2c(ncn2CC(=O)OCCCC(=O)c2ccc(Br)cc2)n(C)c1=O | 28 (≈ 60.4 µM)
85 | O=C(NCCSCc1c(F)cccc1Cl)Nc1ccccc1 | 2.5 (≈ 7.38 µM)
86 | Cc1cc(Cl)cc(Cl)c1OCCN1CCCC1 | 30.2 (≈ 110 µM)
87 | CC(C)N(CC(N)=O)C(=O)c1sc2cc(F)ccc2c1Cl | 45 (≈ 137 µM)
88 | O=S(=O)(NC1CCCCC1)c1ccc(N2CCOCC2)nc1 | > 48.8
89 | O=C(Cc1ccccc1F)NCC1(N2CCOCC2)CCCCC1 | > 50.2
90 | Cl.O=C(OCC1CCNCC1)c1ccc2c(c1)OCO2 | > 45
91 | CN(CC(=O)Nc1ccccc1Br)C(=O)CN1CCN(Cc2cccc(Cl)c2)CC1 | > 74.1
92 | C=C(C)c1cccc(C(C)(C)NC(=O)NCc2ccncc2)c1 | > 46.4
93 | CN(C(=O)CSc1nc(N)cc(N)n1)C1CCS(=O)(=O)C1 (stereo unspecified) | 41 (≈ 124 µM)
94 | C=CCNC(=S)Nc1ccc(Cl)cc1F | > 36.7
95 | O=C(Nc1nccs1)c1ccc2ccccc2n1 | 5.6 (≈ 21.9 µM)
96 | CC(C)(c1ccccc1)c1ccc(OCCN2CCCC2)cc1 | 29.2 (≈ 94.4 µM)
97 | CC(=O)c1ccccc1OC(=O)COc1ccc([N+](=O)[O-])cc1 | > 47.3
98 | CCC(=O)Nc1c(-c2ccc3ccccc3c2)nc2ccccn12 | 45.7 (≈ 145 µM)
99 | Cc1ccnc(NC(=O)c2cccc(S(=O)(=O)N3CCCC3)c2)c1 | 43.1 (≈ 125 µM)
100 | Cc1csc(NC(=O)c2cnc3ccccc3n2)n1 | 12.5 (≈ 46.2 µM)

Row | Compound | solubility kinetic [µg/mL]
101 | Cc1cccc(NC(=O)OC2CN3CCC2CC3)c1 (stereo unspecified) | > 39.1
102 | COc1cc(NC(=O)CSc2nncn2C)cc(OC)c1OC | > 50.8
103 | CCOC(=O)C1CCCCN1Cc1cccc(Oc2ccccc2)c1 (stereo unspecified) | < 0.7
104 | CCCCS(=O)(=O)N1CCCC(C(=O)Nc2ccc(Cl)cn2)C1 (stereo unspecified) | 19.9 (≈ 55.3 µM)
105 | CC(=O)c1ccc(N2CCN(C(=S)NCc3ccco3)CC2)cc1 | 45.4 (≈ 132 µM)
106 | COc1ccc(C(=O)NC(=S)Nc2cccnc2)cc1Cl | 1.5 (≈ 4.66 µM)
107 | Cn1c(SCC(=O)NC2CCCC2)nnc1-c1ccco1 | > 46
108 | CSc1cccc(NC(=S)N2CCC(c3ccccc3)C2)c1 (stereo unspecified) | 2.2 (≈ 6.7 µM)
109 | CC(C)C(NC(=O)c1ccco1)C(=O)NCc1ccc(C(=O)O)cc1 (stereo unspecified) | > 51.7
110 | CN(C)C(C)(C)C#CC(O)(c1ccccc1)c1ccccc1 | > 44
111 | CCc1cc(C(=O)Nc2ccccc2N2CCOCC2)sc1C | 2.2 (≈ 6.66 µM)
112 | CC(C)CCC1(C)NC(=O)N(CC(=O)c2ccc[nH]2)C1=O (stereo unspecified) | 36.1 (≈ 124 µM)
113 | COc1cccc(/C=C/C(=O)NCc2ccc(S(N)(=O)=O)cc2)c1 | 12.7 (≈ 36.7 µM)
114 | CC(=O)c1ccc(NC(=S)Nc2cccc(Cl)c2C)cc1 | 40.7 (≈ 128 µM)
115 | CSc1sc(C(=O)N(C)C)cc1S(=O)(=O)C(C)C | > 46.1
116 | Cc1c(-c2nc(-c3ccncc3)no2)cccc1[N+](=O)[O-] | 1.7 (≈ 6.02 µM)
117 | CC(C)Oc1cc(C(=O)NC2CCCCC2)c2ccccc2n1 | 1.4 (≈ 4.48 µM)
118 | Cc1ccc2ncnc(Nc3cccc([N+](=O)[O-])c3)c2c1 | 5.9 (≈ 21 µM)
119 | CC(C)NC(=O)C1c2ccccc2Oc2ccccc21 | 1.1 (≈ 4.11 µM)
120 | Clc1nc(-c2ccccc2)c2ccccc2n1 | 17.6 (≈ 73.1 µM)
121 | CC(C)c1ccccc1-n1cc[nH]c1=S | > 32.7
